Test results published in patent US7348017B2, “Dithiazole compounds, matrix metalloprotease inhibitors and external preparations for the skin” (Shiseido Co., Ltd., priority 2001, dated 2008).

Biological target: T1, MMP-9 (crude enzyme solution derived from a mouse skin) (Mus musculus, UniProt P41245)
T1 construct: crude enzyme solution derived from a mouse skin; from tissue; host or cells: mouse skin
Assay: Gelatinase group MMPs inhibition test (gelatin zymography)
Format: biochemical
Parameters: key: ⊚: The band disappeared.; ◯: The band was slightly confirmed.; Δ: The band became narrower than control.; ×: Unchanged
Details: sample solution 100 μM; gel incubated overnight; size of MMP-9 band compared with control solution
Experimental: A test material was dissolved in dimethyl sulfoxide (DMSO) to the concentration of 10 mM, to prepare a stock solution. The stock solution was diluted with a measuring buffer (0.05M tris at pH 7.5 containing 0.2M NaCl and 5 mM CaCl2) to adjust the concentration to 100 μM, which was used as a sample solution. As a control solution, a solution containing no test material was similarly prepared.
(b) Gelatinase Group MMPs Inhibition Test
As a gelatinase group enzyme, MMP-9 (crude enzyme solution derived from a mouse skin) was used. The test was performed according to a gelatin zymography method (“Bio-antioxidant provitamin C”, Nobuhiko Miwa ed., p.76, 1999, Fragrance Journal, Tokyo).
That is, a gel containing gelatin in which a predetermined amount of the crude enzyme solution had been subjected to electrophoresis in advance, was incubated overnight with a sample solution or a control solution. After the gel was stained, the appearing band corresponding to MMP-9 was evaluated by a decrease when its size compared with that of a band of control solution. Evaluation criteria was as follows: • ⊚: The band disappeared. • ◯: The band was slightly confirmed. • Δ: The band became narrower than control. • ×: Unchanged.

T1 sequence (P41245 108-730): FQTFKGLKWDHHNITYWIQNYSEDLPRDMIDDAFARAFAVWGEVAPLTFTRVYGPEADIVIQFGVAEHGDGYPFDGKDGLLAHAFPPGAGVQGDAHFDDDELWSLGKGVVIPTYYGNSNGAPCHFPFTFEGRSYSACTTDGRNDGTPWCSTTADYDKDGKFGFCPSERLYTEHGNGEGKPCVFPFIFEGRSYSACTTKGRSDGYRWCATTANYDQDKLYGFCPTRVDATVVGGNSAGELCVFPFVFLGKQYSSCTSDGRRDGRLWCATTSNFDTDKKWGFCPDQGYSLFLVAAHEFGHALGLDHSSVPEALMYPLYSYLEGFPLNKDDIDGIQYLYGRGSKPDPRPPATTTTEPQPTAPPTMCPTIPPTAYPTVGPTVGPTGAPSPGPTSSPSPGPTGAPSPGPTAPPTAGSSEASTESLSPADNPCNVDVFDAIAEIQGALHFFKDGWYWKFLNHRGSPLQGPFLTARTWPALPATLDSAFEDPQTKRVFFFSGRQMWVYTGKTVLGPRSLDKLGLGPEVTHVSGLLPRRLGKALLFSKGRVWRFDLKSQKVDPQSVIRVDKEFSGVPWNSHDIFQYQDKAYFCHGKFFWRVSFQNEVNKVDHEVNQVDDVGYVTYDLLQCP

Row | MMPs Inhibition | Compound
1 | ◯ | CC(C)=CCC/C(C)=C/COc1ccc(CC(=O)Nc2nc(=S)ss2)cc1 [Compound 2, 2-{4-[(3,7-Dimethyl-2,6-octadienyl)oxy]phenyl}-N-(3-thioxo-3H-1,2,4-dithiazol-5-yl)acetoamide]
2 | ⊚ | CC(C)C(C(=O)Nc1nc(=S)ss1)c1ccc(OCc2ccc(F)cc2)cc1 (stereo not shown) [Compound 12, 2-{4-[(4-Fluorobenzyl)oxy]phenyl}-3-methyl-N-(3-thioxo-3H-1,2,4-dithiazol-5-yl)butanamide]
3 | ◯ | O=C(Cc1cccc(OCc2ccc(F)cc2)c1)Nc1nc(=S)ss1 [Compound 8, 2-{3-[(4-Fluorobenzyl)oxy]phenyl}-N-(3-thioxo-3H-1,2,4-dithiazol-5-yl)acetoamide]
4 | ◯ | O=C(Cc1ccccc1OCc1ccc(F)cc1)Nc1nc(=S)ss1 [Compound 7, 2-{2-[(4-Fluorobenzyl)oxy]phenyl}-N-(3-thioxo-3H-1,2,4-dithiazol-5-yl)acetoamide]
5 | ◯ | O=C(Cc1ccc(OCc2ccc(F)cc2)cc1)Nc1nc(=S)ss1 [Compound 5, 2-{4-[(4-Fluorobenzyl)oxy]phenyl}-N-(3-thioxo-3H-1,2,4-dithiazol-5-yl)acetoamide]
6 | ◯ | O=C(Cc1cc(OCc2ccc(F)cc2)cc(OCc2ccc(F)cc2)c1)Nc1nc(=S)ss1 [Compound 9, 2-{3,5-Bis[(4-fluorobenzyl)oxy]phenyl}-N-(3-thioxo-3H-1,2,4-dithiazol-5-yl)acetoamide]
7 | ◯ | COc1ccc(S(=O)(=O)N(CC(=O)Nc2nc(=S)ss2)Cc2ccccc2)cc1 [Compound 1, 2-{Benzyl[(4-methoxyphenyl)sulfonyl]amino}-N-(3-thioxo-3H-1,2,4-dithiazol-5-yl) acetoamide]
